# According to PubChem BioAssay (NCI):
#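 Results reflect a 48-hour exposure of cells in 96-well plates to compound at five concentrations. Abbreviation: GI50, concentration required for 50% inhibition of growth. TGI marks complete inhibition of growth.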
# Tests used:
# Assay in all cases: NCI tumour cell line growth inhibition, 48 h
# SW-620 colon = test system: SW-620 colon
# MCF7 breast = test system: MCF7 breast
# PC-3 prostate = test system: PC-3 prostate
# K-562 leukemia = test system: K-562 leukemia
# SNB-19 CNS = test system: SNB-19 CNS
# SR leukemia = test system: SR leukemia
# SK-MEL-2 melanoma = test system: SK-MEL-2 melanoma
# DU-145 prostate = test system: DU-145 prostate
# OVCAR-3 ovarian = test system: OVCAR-3 ovarian
# HL-60(TB) leukemia = test system: HL-60(TB) leukemia
# OVCAR-5 ovarian = test system: OVCAR-5 ovarian
# SF-539 CNS = test system: SF-539 CNS
# BT-549 breast = test system: BT-549 breast
# EKVX NSCLC = test system: EKVX NSCLC
# SNB-75 CNS = test system: SNB-75 CNS
# RPMI-8226 leukemia = test system: RPMI-8226 leukemia
# MDA-MB-435 = test system: MDA-MB-435
# UACC-257 melanoma = test system: UACC-257 melanoma
# UO-31 renal = test system: UO-31 renal
# RXF 393 renal = test system: RXF 393 renal
# HOP-62 NSCLC = test system: HOP-62 NSCLC
# SF-295 CNS = test system: SF-295 CNS
# IGROV1 ovarian = test system: IGROV1 ovarian
# SK-MEL-5 melanoma = test system: SK-MEL-5 melanoma
# KM12 colon = test system: KM12 colon
# MOLT-4 leukemia = test system: MOLT-4 leukemia
# TK-10 renal = test system: TK-10 renal
# HT29 colon = test system: HT29 colon
# M14 melanoma = test system: M14 melanoma
# HCT-15 colon = test system: HCT-15 colon
# SK-OV-3 ovarian = test system: SK-OV-3 ovarian
# OVCAR-8 ovarian = test system: OVCAR-8 ovarian
# COLO 205 colon = test system: COLO 205 colon
# 786-0 renal = test system: 786-0 renal
# NCI-H23 lung = test system: NCI-H23 lung
# HCT-116 colon = test system: HCT-116 colon
# SK-MEL-28 melanoma = test system: SK-MEL-28 melanoma
# NCI-H460 lung = test system: NCI-H460 lung
# A498 renal = test system: A498 renal
# HS 578T breast = test system: HS 578T breast
# MALME-3M melanoma = test system: MALME-3M melanoma
# NCI/ADR-RES ovarian = test system: NCI/ADR-RES ovarian
# SF-268 CNS = test system: SF-268 CNS
# LOX IMVI melanoma = test system: LOX IMVI melanoma
# CCRF-CEM leukemia = test system: CCRF-CEM leukemia
# T-47D breast = test system: T-47D breast
# UACC-62 melanoma = test system: UACC-62 melanoma
# ACHN renal = test system: ACHN renal
# NCI-H226 lung = test system: NCI-H226 lung
# HOP-92 NSCLC = test system: HOP-92 NSCLC
# HCC-2998 colon = test system: HCC-2998 colon
# OVCAR-4 ovarian = test system: OVCAR-4 ovarian
# CAKI-1 renal = test system: CAKI-1 renal
# NCI-H522 lung = test system: NCI-H522 lung
# U251 CNS = test system: U251 CNS
# A549 NSCLC = test system: A549 NSCLC
# MDA-MB-231 breast = test system: MDA-MB-231 breast
compound,measurement,setting,value
Cc1c2c(n(C)c1C)C(=O)C1C(C2=O)C2(C)c3ccccc3C1(C)c1ccccc12 (configuration not stated),TGI,SW-620 colon,> 100 µM
same,TGI,MCF7 breast,> 100 µM
same,TGI,PC-3 prostate,> 100 µM
same,TGI,K-562 leukemia,> 100 µM
same,TGI,SNB-19 CNS,> 100 µM
same,TGI,SR leukemia,> 100 µM
same,TGI,SK-MEL-2 melanoma,> 100 µM
same,TGI,DU-145 prostate,> 100 µM
same,TGI,OVCAR-3 ovarian,> 100 µM
same,TGI,HL-60(TB) leukemia,> 100 µM
same,TGI,OVCAR-5 ovarian,> 100 µM
same,TGI,SF-539 CNS,> 100 µM
same,TGI,BT-549 breast,> 100 µM
same,TGI,EKVX NSCLC,> 100 µM
same,TGI,SNB-75 CNS,> 100 µM
same,TGI,RPMI-8226 leukemia,> 100 µM
same,TGI,MDA-MB-435,> 100 µM
same,TGI,UACC-257 melanoma,> 100 µM
same,TGI,UO-31 renal,> 100 µM
same,TGI,RXF 393 renal,> 100 µM
same,TGI,HOP-62 NSCLC,> 100 µM
same,TGI,SF-295 CNS,> 100 µM
same,TGI,IGROV1 ovarian,> 100 µM
same,TGI,SK-MEL-5 melanoma,> 100 µM
same,TGI,KM12 colon,> 100 µM
same,TGI,MOLT-4 leukemia,> 100 µM
same,TGI,TK-10 renal,> 100 µM
same,TGI,HT29 colon,> 100 µM
same,TGI,M14 melanoma,> 100 µM
same,TGI,HCT-15 colon,> 100 µM
same,TGI,SK-OV-3 ovarian,> 100 µM
same,TGI,OVCAR-8 ovarian,> 100 µM
same,TGI,COLO 205 colon,> 100 µM
same,TGI,786-0 renal,> 100 µM
same,TGI,NCI-H23 lung,> 100 µM
same,TGI,HCT-116 colon,> 100 µM
same,TGI,SK-MEL-28 melanoma,> 100 µM
same,TGI,NCI-H460 lung,> 100 µM
same,TGI,A498 renal,> 100 µM
same,TGI,HS 578T breast,> 100 µM
same,TGI,MALME-3M melanoma,> 100 µM
same,TGI,NCI/ADR-RES ovarian,> 100 µM
same,TGI,SF-268 CNS,> 100 µM
same,TGI,LOX IMVI melanoma,> 100 µM
same,TGI,CCRF-CEM leukemia,> 100 µM
same,TGI,T-47D breast,> 100 µM
same,TGI,UACC-62 melanoma,> 100 µM
same,TGI,ACHN renal,> 100 µM
same,TGI,NCI-H226 lung,> 100 µM
COc1ccc(/C=C/C2C(C#N)=C(N)OC3=C2C(=O)CCC3)cc1 (configuration not stated),GI50,SW-620 colon,29.7 µM
same,TGI,SW-620 colon,> 100 µM
same,GI50,MCF7 breast,12.1 µM
same,TGI,MCF7 breast,26.4 µM
same,GI50,HOP-92 NSCLC,23.6 µM
same,TGI,HOP-92 NSCLC,46.9 µM
same,GI50,HCC-2998 colon,18.2 µM
same,TGI,HCC-2998 colon,32.9 µM
same,GI50,OVCAR-4 ovarian,22.8 µM
same,TGI,OVCAR-4 ovarian,66.5 µM
same,GI50,K-562 leukemia,24.4 µM
same,TGI,K-562 leukemia,> 100 µM
same,GI50,SNB-19 CNS,19.8 µM
same,TGI,SNB-19 CNS,43.1 µM
same,GI50,SR leukemia,2.71 µM
same,TGI,SR leukemia,16 µM
same,GI50,SK-MEL-2 melanoma,38.5 µM
same,TGI,SK-MEL-2 melanoma,> 100 µM
same,GI50,DU-145 prostate,15.9 µM
same,TGI,DU-145 prostate,33.7 µM
same,GI50,OVCAR-3 ovarian,34 µM
same,TGI,OVCAR-3 ovarian,> 100 µM
same,GI50,HL-60(TB) leukemia,5.28 µM
same,TGI,HL-60(TB) leukemia,63.2 µM
same,GI50,OVCAR-5 ovarian,18.8 µM
same,TGI,OVCAR-5 ovarian,34.5 µM
same,GI50,SF-539 CNS,31.3 µM
same,TGI,SF-539 CNS,80.1 µM
same,GI50,BT-549 breast,31.9 µM
same,TGI,BT-549 breast,> 100 µM
same,GI50,EKVX NSCLC,38 µM
same,TGI,EKVX NSCLC,> 100 µM
same,GI50,SNB-75 CNS,19.9 µM
same,TGI,SNB-75 CNS,37.4 µM
same,GI50,CAKI-1 renal,40.8 µM
same,TGI,CAKI-1 renal,97.3 µM
same,GI50,RPMI-8226 leukemia,2.14 µM
same,TGI,RPMI-8226 leukemia,5.18 µM
same,GI50,NCI-H522 lung,18.3 µM
same,TGI,NCI-H522 lung,38.9 µM
same,GI50,MDA-MB-435,18.4 µM
same,TGI,MDA-MB-435,61.3 µM
same,GI50,UACC-257 melanoma,23 µM
same,TGI,UACC-257 melanoma,49.5 µM
same,GI50,UO-31 renal,18.2 µM
same,TGI,UO-31 renal,33.1 µM
same,GI50,RXF 393 renal,18.7 µM
same,TGI,RXF 393 renal,35.9 µM
same,GI50,HOP-62 NSCLC,29.6 µM
same,TGI,HOP-62 NSCLC,62.7 µM
same,GI50,SF-295 CNS,21.5 µM
same,TGI,SF-295 CNS,50.1 µM
same,GI50,IGROV1 ovarian,22 µM
same,TGI,IGROV1 ovarian,41.3 µM
same,GI50,SK-MEL-5 melanoma,18.1 µM
same,TGI,SK-MEL-5 melanoma,32.8 µM
same,GI50,KM12 colon,13.5 µM
same,TGI,KM12 colon,28.6 µM
same,GI50,MOLT-4 leukemia,4.23 µM
same,TGI,MOLT-4 leukemia,19.7 µM
same,GI50,TK-10 renal,26.9 µM
same,TGI,TK-10 renal,63.8 µM
same,GI50,HT29 colon,7.9 µM
same,TGI,HT29 colon,20.2 µM
same,GI50,M14 melanoma,20.8 µM
same,TGI,M14 melanoma,49.6 µM
same,GI50,HCT-15 colon,21.4 µM
same,TGI,HCT-15 colon,> 100 µM
same,GI50,SK-OV-3 ovarian,25.1 µM
same,TGI,SK-OV-3 ovarian,77.6 µM
same,GI50,U251 CNS,12.5 µM
same,TGI,U251 CNS,25 µM
same,GI50,OVCAR-8 ovarian,21.2 µM
same,TGI,OVCAR-8 ovarian,> 100 µM
same,GI50,COLO 205 colon,21.1 µM
same,TGI,COLO 205 colon,41.2 µM
same,GI50,NCI-H23 lung,20.1 µM
same,TGI,NCI-H23 lung,47.7 µM
same,GI50,HCT-116 colon,7.39 µM
same,TGI,HCT-116 colon,20 µM
same,GI50,SK-MEL-28 melanoma,17.9 µM
same,TGI,SK-MEL-28 melanoma,35.3 µM
same,GI50,NCI-H460 lung,16.9 µM
same,TGI,NCI-H460 lung,35 µM
same,GI50,A549 NSCLC,32.4 µM
same,TGI,A549 NSCLC,97 µM
same,GI50,A498 renal,22.6 µM
same,TGI,A498 renal,41 µM
same,GI50,HS 578T breast,63 µM
same,TGI,HS 578T breast,> 100 µM
same,GI50,MALME-3M melanoma,31.9 µM
same,TGI,MALME-3M melanoma,87.1 µM
same,GI50,NCI/ADR-RES ovarian,33.9 µM
same,TGI,NCI/ADR-RES ovarian,> 100 µM
same,GI50,SF-268 CNS,13.8 µM
same,TGI,SF-268 CNS,30.5 µM
same,GI50,LOX IMVI melanoma,11.4 µM
same,TGI,LOX IMVI melanoma,23.4 µM
same,GI50,CCRF-CEM leukemia,4.05 µM
same,TGI,CCRF-CEM leukemia,16.6 µM
same,GI50,T-47D breast,29.4 µM
same,TGI,T-47D breast,> 100 µM
same,GI50,ACHN renal,17.7 µM
same,TGI,ACHN renal,33.7 µM
same,GI50,MDA-MB-231 breast,2.54 µM
same,TGI,MDA-MB-231 breast,8.79 µM
same,GI50,NCI-H226 lung,15 µM
same,TGI,NCI-H226 lung,34 µM
